In patent US12520839B2, “Methods and compositions for cryopreservation of cell therapies” (The George Washington University, priority 2020, dated 2026):

How the values were obtained:
Type in all cases: cell-based
NK cells [1] = assay: NK-cell phenotype by flow cytometry after thawing
Procedure: (§1) Polyclonally activated T cells and expanded NK cells were expanded for 14 and 12 days respectively and cryopreserved using freezing media (FM) with or without TAPI-2 prepared as described in Example 1. Cryovials were then stored in liquid nitrogen tank.
Flow analysis was performed 120 minutes after thawing (except for NKG2D which expression was analyzed immediately after thawing).

T cells = assay: CD62L expression on T cells after cryopreservation and thawing
Procedure: (§2) A freezing medium (FM) was prepared having 50% RPMI, 40% FBS, 10% DMSO. FM was supplemented with the ADAM17 inhibitor TAPI-2 at amounts indicated in this example. Additionally, a wash medium (WM) was prepared having 50% RPMI, 40% FBS, 10% DMSO and supplemented with TAPI-2 at amounts indicated in this example.
(§3) Experiments were generally performed using in-vitro NK cells and T cells that were isolated and expanded for 14 days in culture. On day 14 of the culture, the NK cells and T cells were cryopreserved the using FM with or without TAPI-2. Then, cells were thawed using WM with or without TAPI-2.
CD62L expression is maintained in T cells in presence of TAPI-2.
Next, T cells were cryopreserved in freezing media without TAPI-2.

NK cells [2] = assay: CD16 expression on NK cells after cryopreservation and thawing
Procedure: as §2, §3
CD16 expression is maintained in NK cells in presence of TAPI-2.

NK cells and T cells = assay: Cell viability after thawing, trypan blue exclusion; conditions: TAPI-2 added to freezing medium; immediately and 120 minutes after thawing; FIGS. 6A-6B
Procedure: as §1
Cryovials were thawed in water bath with cell wash performed, cell recovery (FIGS. 5A-5B) and viability (FIGS. 6A-6B) was assessed immediately after thawing. Cell viability was also assessed 120 minutes after thawing (FIGS. 6A-6B). Trypan blue exclusion method was use to evaluate cell viability.

## CC(C)C[C@H](CC(=O)NO)C(=O)N[C@H](C(=O)N[C@@H](C)C(=O)NCCN)C(C)(C)C [TAPI-2]
NK cells [1]; TAPI-2 added to freezing medium, summary statement
  phenotype: did not negatively affect
NK cells [1]; TAPI-2 in the freezing media, flow analysis 120 minutes after thawing (NKG2D immediately after thawing), FIG. 7
  NK-cell phenotype: not affected
T cells; FM containing 50 μM TAPI-2, thawed and not washed, immediately after thawing and 2 hours thereafter, FIG. 3
  CD62L expression after thawing: able to maintain CD62L expression
T cells; T cells cryopreserved in FM containing TAPI-2, FIG. 3
  CD62L expression versus level before cryopreservation: retained expression of CD62L to a level that was equal to that before cells were subjected to cryopreservation
T cells; frozen in freezing media without TAPI-2, wash media with 10 μM TAPI-2 (Thaw+), FIG. 4
  CD62L expression after washing with wash medium containing TAPI-2: showed CD62L expression
NK cells [2]; FM containing 50 μM TAPI-2, thawed and not washed, immediately after thawing and 2 hours thereafter, FIG. 1
  CD16 expression after thawing: able to maintain CD16 expression
NK cells [2]; NK cells cryopreserved in FM containing TAPI-2, FIG. 1
  CD16 expression versus level prior to cryopreservation: retained expression of CD16 to the same level as prior cryopreservation
NK cells [2]; frozen in freezing media without TAPI-2, wash media with 10 μM TAPI-2 (Thaw+), FIG. 2
  CD16 expression after washing with wash medium containing TAPI-2: showed CD16 expression
NK cells and T cells
  cell viability: did not negatively affect
